Experimental findings from ChEMBL document CHEMBL1201862, “PubChem BioAssay data set” (2004) are described below.

What all share (test): NCI tumour cell line growth inhibition, 48 h
Assay [1] concerns M14.
The subject of assay [2] is SF-295.
The subject of assay [3] is ACHN.
Assay [4] has as its system DMS-273.
Assay [5] deals with OVCAR-5.
Assay [6] relates to SK-MEL-28.
Assay [7] has as its system TK-10.
Assay [8] relates to IGROV-1.
In assay [9] the test system is HL-60.
The test system of assay [10] is SK-MEL-5.
Assay [11] concerns EKVX.
Assay [12] relates to HCT-15.
Assay [13] deals with HCC 2998.
Assay [14] concerns CCRF-CEM.
In assay [15] the test system is RXF 393.

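How tested: cells in 96-well plates exposed to compound for 48 hours at five concentrations. The concentration for 50% growth inhibition is given as GI50.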 Calls of active or inactive are those of the source. Rule as the data show it: active = GI50 up to about 1.1 µM and inactive = higher.

On to `COc1ccc(C(=O)C(CO)Oc2ccccc2OC)cc1OC` (stereo not given), for which the GI50 in [1], in assay [2], in [3], in [4], in assay [5] and in assay [6] was > 100 µM (inactive) each time. Moreover, the GI50 in assay [7] is > 100 µM (inactive); in assay [8] it was > 100 µM (inactive); in assay [9] it was > 100 µM (inactive); in assay [10], > 100 µM (inactive); in assay [11], > 100 µM (inactive); in [12], over 100 µM. For the same compound, the GI50 in assay [13] and in assay [14] was > 100 µM (inactive) each time.
`Cc1ccc(NC(=O)C(=O)C(C(=O)c2ccc3ccccc3c2)C2OC(=O)c3ccccc32)c(C)c1` (stereo not given): the GI50 in assay [1] was 14.7 µM (inactive); in assay [3], 23.6 µM (inactive); in [4], > 10 µM (inactive); in assay [5] it was 16.3 µM (inactive); in [6] it was 5.69 µM (inactive); in assay [7] it was 20.3 µM (inactive). Moreover, the GI50 is 10.9 µM (inactive) in assay [8]; 11.1 µM (inactive) in assay [10]; 19.1 µM (inactive) in [11]; 3.24 µM (inactive) in [15]; 14.3 µM in [12]; 8.99 µM (inactive) in assay [13]. Besides, the GI50 in assay [14] is 8.55 µM (inactive).
For the compound `O=C(CSC(=S)N1CCCCC1)Nc1nc2c(s1)CCCC2`, the GI50 is 66.5 µM (inactive) in assay [1]; 16.4 µM (inactive) in [2]; 50 µM (inactive) in assay [3]; 49.4 µM (inactive) in [4]; > 100 µM (inactive) in assay [5]; 64.7 µM (inactive) in assay [6]. Also, the GI50 in assay [7] is 16.4 µM (inactive); in assay [8] it was > 100 µM (inactive); in assay [9] it was 12.1 µM (inactive); in assay [10], 18.5 µM (inactive); in [12], 8.73 µM; in [13] it was 48.3 µM (inactive). In addition, in assay [14], the GI50 is 29.4 µM (inactive).
As for `O=C(c1ccc(Cl)cc1)c1ccc(OCCSCCCCCCCCCCSCCOc2ccc(C(=O)c3ccc(Cl)cc3)cc2)cc1`, the GI50 in assay [2] is 91.8 µM (inactive); in [3], > 100 µM (inactive); in assay [4], > 100 µM (inactive); in assay [5], > 100 µM (inactive); in assay [6] it was > 100 µM (inactive); in [7], > 100 µM (inactive). The GI50 in assay [8] was > 100 µM (inactive); in [9] it was > 100 µM (inactive); in assay [10] it was > 100 µM (inactive); in [11], > 100 µM (inactive); in assay [15], > 100 µM (inactive); in assay [12], over 100 µM. For the same compound, the GI50 in [13] and in assay [14] was > 100 µM (inactive) in each case.
In the case of `N=C(N)N/N=C/c1oc(-c2ccc(S(=O)(=O)O)o2)c(-c2ccc(S(=O)(=O)O)o2)c1[N+](=O)[O-]`, the GI50 in assay [1], in assay [2], in assay [3], in assay [4], in assay [5] and in assay [6] was > 100 µM (inactive) throughout. Also, the GI50 in assay [7], in assay [8], in [9], in [10], in assay [11] and in [15] was > 100 µM (inactive) in each case. In addition, the GI50 in assay [12] is over 100 µM; in [13] it was > 100 µM (inactive); in assay [14] it was > 100 µM (inactive).
As to `CCOC(=O)c1cccc(=O)c(C(=O)OCC)c1`, the GI50 was 81.3 µM (inactive) in assay [1]; 2.38 µM (inactive) in assay [2]; 63.7 µM (inactive) in assay [3]; 48.2 µM (inactive) in assay [4]; > 100 µM (inactive) in assay [5]; 38.6 µM (inactive) in assay [6]. In addition, the GI50 in assay [7] was > 100 µM (inactive); in assay [8], 74 µM (inactive); in assay [9], 26.6 µM (inactive); in assay [10], 47.8 µM (inactive); in assay [11] it was > 100 µM (inactive); in assay [15] it was 36.2 µM (inactive). Moreover, the values for the GI50 in [12], in [13] and in [14] were 40.3 µM, > 100 µM (inactive) and 27.2 µM (inactive), respectively.
On to `COc1cc(Oc2c(O)c(C)c(OC)c(C(C)=O)c2O)c(C(C)=O)c(O)c1C`, for which the GI50 is 64.3 µM (inactive) in [1]; > 100 µM (inactive) in assay [2]; 46.5 µM (inactive) in assay [3]; 37.8 µM (inactive) in assay [4]; 98.2 µM (inactive) in assay [5]; 50.6 µM (inactive) in [6]. The GI50 in [7] is 49.4 µM (inactive); in assay [8], 67.3 µM (inactive); in [10], 35.2 µM (inactive); in assay [15], 61.9 µM (inactive); in assay [12], 47.6 µM; in assay [13] it was 59 µM (inactive). In addition, the GI50 in assay [14] was > 100 µM (inactive).
On to `O=C1NC2(CCCCC2)C2CCCCC=C12` (stereo not given), for which the GI50 in assay [1], in [2], in assay [3], in assay [4], in assay [5] and in assay [6] was > 100 µM (inactive) throughout. The GI50 in [7], in assay [8], in [9], in assay [10], in assay [11] and in assay [15] was > 100 µM (inactive) throughout. Further, the GI50 in assay [12] was over 100 µM; in assay [14], > 100 µM (inactive).
`COC(=O)/C=C(/C(=O)OC)C1(C)c2cc(C(=O)OC)c(C(=O)OC)c(N)c2C(=N)N1c1ccccc1` (stereo not given): the GI50 in assay [1] is 17.5 µM (inactive); in [2], 17.9 µM (inactive); in [3], 18 µM (inactive); in assay [4], 52.8 µM (inactive); in assay [5], 41.4 µM (inactive); in [6] it was 18.1 µM (inactive). The GI50 in [7] was 41.4 µM (inactive); in assay [8], 27.5 µM (inactive); in assay [9], 14.1 µM (inactive); in [10] it was > 10 µM (inactive); in assay [11], 27.1 µM (inactive); in [15] it was 17.1 µM (inactive). For the same compound, the GI50 is 31.8 µM in [12], 16.7 µM (inactive) in assay [13] and 15.5 µM (inactive) in [14].
Take `COc1ccc(C(c2c(O)c3ccccc3n(C)c2=O)c2c(O)c3ccccc3n(C)c2=O)cc1`: the GI50 in [1] is 34.9 µM (inactive); in [2] it was 36.5 µM (inactive); in [3] it was 46.5 µM (inactive); in [4], 31.2 µM (inactive); in assay [5] it was 32.3 µM (inactive); in [6], 39.2 µM (inactive). The GI50 in assay [7] was 38.2 µM (inactive); in assay [8], 71.8 µM (inactive); in assay [9] it was 31.6 µM (inactive); in assay [10], 20.2 µM (inactive); in assay [11], 34.8 µM (inactive); in assay [15], 73.3 µM (inactive). Further, the GI50 was over 10 µM in assay [12] and 40.2 µM (inactive) in assay [13].
For the compound `CCOc1ccc2c(c1)[n+]([O-])c(-c1ccc([N+](=O)[O-])cc1)c(N)[n+]2[O-]`, the GI50 in [1], in assay [2], in assay [3], in assay [4], in [5] and in assay [6] was > 100 µM (inactive) each time. For the same compound, the GI50 in assay [8] was > 100 µM (inactive); in assay [9], 96.8 µM (inactive); in assay [10], > 100 µM (inactive); in assay [11] it was > 100 µM (inactive); in assay [15], > 100 µM (inactive); in assay [14], 49.7 µM (inactive).
Turning to `CCCCn1c(-c2ccccc2)cs/c1=N\NC(=O)Cn1c(C)nc2ccccc21`, the GI50 in assay [1] was 53.2 µM (inactive); in assay [2], 33.5 µM (inactive); in assay [3] it was 75.9 µM (inactive); in assay [4], 76 µM (inactive); in assay [5], > 100 µM (inactive); in [7] it was > 100 µM (inactive). Also, the GI50 in assay [8] was > 100 µM (inactive); in assay [9], 14.4 µM (inactive); in assay [10] it was 20.4 µM (inactive); in [11] it was 47.1 µM (inactive); in assay [15] it was 34.3 µM (inactive); in assay [12], 97.9 µM. Moreover, the results for the GI50 in assay [13] and in assay [14] were 89.1 µM (inactive) and 17.9 µM (inactive), respectively.
With `CC(C)(C)OC(=O)NC1CCC[C@H]1O` (stereo not given in full), the GI50 in assay [1], in assay [2], in [3], in assay [4], in assay [5] and in assay [6] was > 100 µM (inactive) in each case. Besides, the GI50 in assay [7], in assay [10], in assay [11], in assay [15], in [13] and in assay [14] was > 100 µM (inactive) each time.
For `COC(=O)CC1CCN(C#N)CC1CC[N+](=O)[O-]` (stereo not given), the GI50 in assay [1], in assay [3], in [4], in assay [6], in [7] and in assay [8] was > 100 µM (inactive) each time. In addition, the GI50 in assay [9] is > 100 µM (inactive); in assay [10], > 100 µM (inactive); in [15], > 100 µM (inactive); in assay [12], over 100 µM; in assay [13], > 100 µM (inactive); in assay [14], > 100 µM (inactive).
